Assay results: the supplement of paper PMC10307832

Key:
Assay in all cases: relative viability (nuclei count vs DMSO), 5 days (fraction); higher = more cells survive
DM3189 = compound: C1CN(CCN1)C2=CC=C(C=C2)C3=CN4C(=C(C=N4)C5=CC=NC6=CC=CC=C56)N=C3 [DM3189]
In short: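 Only plates meeting two conditions passed: control CV below 25% and at least one doubling. Lung cancer cell lines, kept overnight at 37 °C in 1536-well plates, were pinned with five library-drug doses (not always all listed) √10 apart on vehicle-anchored plates and grown 5 days without medium change. A one-step fix, permeabilisation and Hoechst stain preceded 4× imaging and MetaXpress nuclear counting. Viability equals treated-well nuclei divided by vehicle-well nuclei, as the median over plates.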

DM3189 + Navitoclax = compound: C1CN(CCN1)C2=CC=C(C=C2)C3=CN4C(=C(C=N4)C5=CC=NC6=CC=CC=C56)N=C3 [DM3189] + CC1(C)CCC(c2ccc(Cl)cc2)=C(CN2CCN(c3ccc(C(=O)NS(=O)(=O)c4ccc(N[C@H](CCN5CCOCC5)CSc5ccccc5)c(S(=O)(=O)C(F)(F)F)c4)cc3)CC2)C1 [Navitoclax] (partner 0.5 µM)
In short: (§1)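 Relative viability equals treated-well nuclei counts divided by vehicle-well nuclei counts. Counts came from 4× images of lung cancer cell lines grown in 1536-well plates for 5 days after pin-tool dosing on the day after seeding. Dosing used one drug alone or a fixed anchor-drug dose plus five library-drug doses (not always all listed) in √10 steps, and values are medians of duplicate plates.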

DM3189 + OSI-027 = compound: C1CN(CCN1)C2=CC=C(C=C2)C3=CN4C(=C(C=N4)C5=CC=NC6=CC=CC=C56)N=C3 [DM3189] + COc1cccc2cc(-c3nc([C@H]4CC[C@H](C(=O)O)CC4)n4ncnc(N)c34)[nH]c12 [OSI-027] (partner 0.5 µM)
In short: as §1

DM3189 + Pictilisib = compound: C1CN(CCN1)C2=CC=C(C=C2)C3=CN4C(=C(C=N4)C5=CC=NC6=CC=CC=C56)N=C3 [DM3189] + CS(=O)(=O)N1CCN(Cc2cc3nc(-c4cccc5[nH]ncc45)nc(N4CCOCC4)c3s2)CC1 [Pictilisib] (partner 1 µM)
In short: as §1

DM3189 + Decitabine = compound: C1CN(CCN1)C2=CC=C(C=C2)C3=CN4C(=C(C=N4)C5=CC=NC6=CC=CC=C56)N=C3 [DM3189] + Nc1ncn([C@H]2C[C@H](O)[C@@H](CO)O2)c(=O)n1 [Decitabine] (partner 2 µM)
In short: as §1

Row | Cell Line | relative viability (DM3189; 0.08 µM) | relative viability (DM3189; 0.253 µM) | relative viability (DM3189; 0.8 µM) | relative viability (DM3189; 2.53 µM) | relative viability (DM3189 + Navitoclax; first compound 0.08 µM) | relative viability (DM3189 + Navitoclax; first compound 0.253 µM) | relative viability (DM3189 + Navitoclax; first compound 0.8 µM) | relative viability (DM3189 + Navitoclax; first compound 2.53 µM) | relative viability (DM3189 + OSI-027; first compound 0.08 µM) | relative viability (DM3189 + OSI-027; first compound 0.253 µM) | relative viability (DM3189 + OSI-027; first compound 0.8 µM) | relative viability (DM3189 + OSI-027; first compound 2.53 µM) | relative viability (DM3189 + Pictilisib; first compound 0.08 µM) | relative viability (DM3189 + Pictilisib; first compound 0.253 µM) | relative viability (DM3189 + Pictilisib; first compound 0.8 µM) | relative viability (DM3189 + Pictilisib; first compound 2.53 µM) | relative viability (DM3189 + Decitabine; first compound 0.08 µM) | relative viability (DM3189 + Decitabine; first compound 0.253 µM) | relative viability (DM3189 + Decitabine; first compound 0.8 µM) | relative viability (DM3189 + Decitabine; first compound 2.53 µM)
1 | NCI-H2087 | 1.26 | 1.02 | 1.08 | 0.979 | 1.09 | 0.933 | 1.04 | 1.08 | 0.718 | 0.462 | 0.449 | 0.601 | 1.06 | 0.808 | 0.675 | 0.818 | 0.269 | 0.249 | 0.284 | 0.275
2 | NCI-H2126 | 1.12 | 1.01 | 0.961 | 0.942 | 0.827 | 0.873 | 0.756 | 0.861 | 0.79 | 0.704 | 0.67 | 0.645 | 0.544 | 0.53 | 0.465 | 0.478 | 0.558 | 0.547 | 0.53 | 0.61
3 | NCI-H2170 | 1.06 | 1.01 | 0.981 | 0.946 | 0.637 | 0.541 | 0.541 | 0.711 | 0.863 | 0.76 | 0.768 | 0.686 | 0.308 | 0.301 | 0.288 | 0.291 | 0.494 | 0.484 | 0.466 | 0.44
4 | NCI-H2347 | 1.2 | 1.03 | 0.945 | 1.02 | 0.861 | 0.819 | 0.743 | 0.763 | 0.486 | 0.337 | 0.455 | 0.335 | 0.493 | 0.452 | 0.569 | 0.517 | 0.591 | 0.622 | 0.576 | 0.668
5 | NCI-H2405 | 1.1 | 0.975 | 0.951 | 1.03 | 0.758 | 0.802 | 0.873 | 0.89 | 0.584 | 0.608 | 0.636 | 0.724 | 0.467 | 0.378 | 0.422 | 0.408 | 0.744 | 0.744 | 0.691 | 0.756
6 | NCI-H3122 | 0.992 | 0.901 | 0.905 | 0.975 | 0.97 | 0.968 | 0.957 | 0.824 | 1.16 | 0.916 | 0.909 | 1.04 | 0.568 | 0.466 | 0.601 | 0.502 | 0.362 | 0.353 | 0.372 | 0.367
